Results on eight compounds are retold here after patent publication US9340590B2 (priority 2011, dated 2016).

Positions of bridges follow the written chain, without caps; N, C: chain ends. Non-standard residues stand in square brackets, D forms with d. Residues, ends and D or L forms follow the SMILES beside them. Phe(4-I) = N[C@@H](Cc1ccc(I)cc1)C(=O)O; Cha = N[C@@H](CC1CCCCC1)C(=O)O

Assay in all cases: cell-based
The target in one test is hNav1.7 (Homo sapiens, UniProt Q15858). It counts as cell-based. The note with it: Table 25; IonWorks Quattro, use; […]; read-out: IWQ Use Nav1.7. For orientation: In patch-clamp work, channel activity is measured electrically.
The next test has as its target hNav1.5 (Homo sapiens, UniProt Q14524). Particulars: Table 25; IonWorks Quattro, use; […]; read-out: IWQ Use Nav1.5.
For the next test, the target named is hNav1.3 (Homo sapiens, UniProt Q9NY46). The note with it: Table 25; IonWorks Quattro, use; […]; read-out: IWQ Use Nav1.3.
Sequence of hNav1.3 (Q9NY46 whole entry, looked up): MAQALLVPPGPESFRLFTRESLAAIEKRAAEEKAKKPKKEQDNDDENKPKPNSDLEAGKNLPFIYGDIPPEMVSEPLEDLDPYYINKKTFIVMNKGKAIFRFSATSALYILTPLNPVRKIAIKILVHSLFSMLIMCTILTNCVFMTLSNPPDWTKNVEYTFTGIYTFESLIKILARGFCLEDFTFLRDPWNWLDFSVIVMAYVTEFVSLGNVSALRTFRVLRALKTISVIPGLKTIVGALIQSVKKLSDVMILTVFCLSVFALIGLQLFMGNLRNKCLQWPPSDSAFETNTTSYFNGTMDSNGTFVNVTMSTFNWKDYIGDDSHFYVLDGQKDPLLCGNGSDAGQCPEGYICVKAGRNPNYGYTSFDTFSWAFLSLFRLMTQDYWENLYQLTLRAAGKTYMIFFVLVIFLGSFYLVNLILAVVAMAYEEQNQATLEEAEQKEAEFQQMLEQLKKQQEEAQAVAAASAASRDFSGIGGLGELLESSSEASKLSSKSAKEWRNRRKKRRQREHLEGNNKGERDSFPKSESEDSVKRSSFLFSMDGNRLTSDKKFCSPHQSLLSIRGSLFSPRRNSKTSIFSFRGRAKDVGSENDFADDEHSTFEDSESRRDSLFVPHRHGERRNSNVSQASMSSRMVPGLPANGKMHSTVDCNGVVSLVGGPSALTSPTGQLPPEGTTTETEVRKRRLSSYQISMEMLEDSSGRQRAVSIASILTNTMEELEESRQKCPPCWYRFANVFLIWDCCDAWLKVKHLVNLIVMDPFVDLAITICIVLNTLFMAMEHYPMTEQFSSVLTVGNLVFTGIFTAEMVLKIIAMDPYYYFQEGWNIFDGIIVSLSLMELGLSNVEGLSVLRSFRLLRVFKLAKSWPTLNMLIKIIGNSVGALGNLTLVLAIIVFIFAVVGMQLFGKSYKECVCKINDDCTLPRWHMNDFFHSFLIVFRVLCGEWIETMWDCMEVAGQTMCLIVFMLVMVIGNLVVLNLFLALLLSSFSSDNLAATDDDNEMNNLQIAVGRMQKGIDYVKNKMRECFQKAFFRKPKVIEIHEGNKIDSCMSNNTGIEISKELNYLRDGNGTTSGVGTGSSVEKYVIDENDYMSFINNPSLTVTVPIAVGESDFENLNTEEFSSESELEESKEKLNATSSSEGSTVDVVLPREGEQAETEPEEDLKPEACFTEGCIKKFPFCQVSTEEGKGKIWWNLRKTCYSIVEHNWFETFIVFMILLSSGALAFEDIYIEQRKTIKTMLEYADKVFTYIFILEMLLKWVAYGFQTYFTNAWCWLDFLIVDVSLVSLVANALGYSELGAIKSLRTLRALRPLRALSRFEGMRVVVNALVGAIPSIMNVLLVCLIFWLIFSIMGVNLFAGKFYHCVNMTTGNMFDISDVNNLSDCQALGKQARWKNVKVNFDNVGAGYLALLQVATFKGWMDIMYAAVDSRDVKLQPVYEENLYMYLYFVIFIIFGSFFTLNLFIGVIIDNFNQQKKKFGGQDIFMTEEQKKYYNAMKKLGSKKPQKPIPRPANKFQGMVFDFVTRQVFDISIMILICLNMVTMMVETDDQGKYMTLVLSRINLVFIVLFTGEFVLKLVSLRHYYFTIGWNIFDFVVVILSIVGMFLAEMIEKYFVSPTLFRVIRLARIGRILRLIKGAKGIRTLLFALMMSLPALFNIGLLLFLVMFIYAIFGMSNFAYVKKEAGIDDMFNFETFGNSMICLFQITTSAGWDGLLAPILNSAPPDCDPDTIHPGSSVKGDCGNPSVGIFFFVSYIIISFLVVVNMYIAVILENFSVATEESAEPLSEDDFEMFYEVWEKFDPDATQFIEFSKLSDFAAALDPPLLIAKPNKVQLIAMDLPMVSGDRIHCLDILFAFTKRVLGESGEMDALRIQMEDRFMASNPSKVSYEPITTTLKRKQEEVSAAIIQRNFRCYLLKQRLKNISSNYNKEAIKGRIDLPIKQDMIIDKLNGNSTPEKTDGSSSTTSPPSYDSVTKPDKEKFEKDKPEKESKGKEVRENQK

Sequence of hNav1.5 (Q14524 whole entry, looked up): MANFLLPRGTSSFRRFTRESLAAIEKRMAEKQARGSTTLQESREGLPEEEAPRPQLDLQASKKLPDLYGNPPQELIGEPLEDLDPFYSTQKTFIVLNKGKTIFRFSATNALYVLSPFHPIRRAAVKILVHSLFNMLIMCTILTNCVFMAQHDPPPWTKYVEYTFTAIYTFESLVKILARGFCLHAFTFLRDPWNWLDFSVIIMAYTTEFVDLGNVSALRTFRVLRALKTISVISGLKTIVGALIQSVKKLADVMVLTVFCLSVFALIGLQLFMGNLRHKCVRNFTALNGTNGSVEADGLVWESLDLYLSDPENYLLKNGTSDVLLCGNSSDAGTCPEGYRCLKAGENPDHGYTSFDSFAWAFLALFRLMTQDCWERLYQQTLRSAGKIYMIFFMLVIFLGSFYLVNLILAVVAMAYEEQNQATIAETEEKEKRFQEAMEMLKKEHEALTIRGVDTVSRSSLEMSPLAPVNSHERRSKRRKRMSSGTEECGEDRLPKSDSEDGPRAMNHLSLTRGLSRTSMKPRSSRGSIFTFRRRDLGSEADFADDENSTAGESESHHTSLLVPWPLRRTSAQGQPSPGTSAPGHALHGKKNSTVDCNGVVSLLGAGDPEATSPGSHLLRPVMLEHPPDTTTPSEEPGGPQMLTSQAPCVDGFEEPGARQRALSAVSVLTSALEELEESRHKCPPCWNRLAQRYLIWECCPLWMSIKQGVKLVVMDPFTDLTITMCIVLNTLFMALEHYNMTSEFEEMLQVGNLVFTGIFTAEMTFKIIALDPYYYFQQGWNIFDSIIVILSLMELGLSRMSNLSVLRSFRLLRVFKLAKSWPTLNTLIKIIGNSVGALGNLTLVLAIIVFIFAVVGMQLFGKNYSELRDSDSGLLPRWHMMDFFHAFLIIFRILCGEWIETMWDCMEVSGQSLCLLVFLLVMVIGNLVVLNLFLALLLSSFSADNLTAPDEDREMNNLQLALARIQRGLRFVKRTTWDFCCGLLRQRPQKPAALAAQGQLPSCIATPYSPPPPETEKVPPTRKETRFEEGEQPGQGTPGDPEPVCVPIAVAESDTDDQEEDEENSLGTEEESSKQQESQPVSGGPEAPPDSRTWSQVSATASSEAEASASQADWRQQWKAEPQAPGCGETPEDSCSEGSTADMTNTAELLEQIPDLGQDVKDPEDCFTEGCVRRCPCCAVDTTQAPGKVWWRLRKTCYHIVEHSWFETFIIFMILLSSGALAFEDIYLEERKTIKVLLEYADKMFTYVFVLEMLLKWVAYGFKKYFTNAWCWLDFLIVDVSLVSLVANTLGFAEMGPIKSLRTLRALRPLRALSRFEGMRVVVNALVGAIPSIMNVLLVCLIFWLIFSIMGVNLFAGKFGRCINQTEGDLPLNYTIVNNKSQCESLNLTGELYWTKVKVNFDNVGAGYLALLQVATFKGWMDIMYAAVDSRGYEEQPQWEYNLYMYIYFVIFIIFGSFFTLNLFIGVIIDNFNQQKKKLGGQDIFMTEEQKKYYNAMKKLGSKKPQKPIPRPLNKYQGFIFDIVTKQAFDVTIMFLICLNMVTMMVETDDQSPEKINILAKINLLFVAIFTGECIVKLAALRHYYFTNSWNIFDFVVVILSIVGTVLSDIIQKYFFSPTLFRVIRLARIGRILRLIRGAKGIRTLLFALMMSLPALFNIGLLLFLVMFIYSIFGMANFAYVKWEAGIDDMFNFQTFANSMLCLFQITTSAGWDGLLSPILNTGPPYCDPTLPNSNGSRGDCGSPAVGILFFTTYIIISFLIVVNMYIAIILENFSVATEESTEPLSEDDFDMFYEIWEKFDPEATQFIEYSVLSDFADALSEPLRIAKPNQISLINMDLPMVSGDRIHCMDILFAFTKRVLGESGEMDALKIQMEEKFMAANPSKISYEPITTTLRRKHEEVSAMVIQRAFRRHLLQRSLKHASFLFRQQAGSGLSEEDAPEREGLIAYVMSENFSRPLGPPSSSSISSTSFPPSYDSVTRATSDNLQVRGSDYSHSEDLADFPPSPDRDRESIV

As to `CC[C@H](C)[C@@H]1NC(=O)[C@@H]2CSSC[C@@H]3NC(=O)[C@H](C(C)C)NC(=O)[C@H](CC(C)C)NC(=O)[C@H](CC(N)=O)NC(=O)[C@@H]4CCCN4C(=O)[C@H](CCCNC(=N)N)NC(=O)[C@H](CSSC[C@H](NC(=O)[C@@H](N)CC(=O)O)C(=O)N[C@@H](CC(C)C)C(=O)NCC(=O)N[C@@H](Cc4ccccc4)C(=O)N[C@@H](CCSC)C(=O)N[C@@H](CCCNC(=N)N)C(=O)N[C@@H](CCCCN)C(=O)N2)NC(=O)[C@H](CSSC[C@@H](C(=O)N[C@@H](CCCCN)C(=O)N[C@@H](CC2CCCCC2)C(=O)N[C@H](C(=O)N[C@@H](Cc2ccccc2)C(N)=O)C(C)C)NC(=O)[C@H](Cc2c[nH]c4ccccc24)NC(=O)[C@H](CCCCN)NC(=O)[C@H](Cc2c[nH]cn2)NC(=O)[C@H]([C@@H](C)O)NC(=O)[C@H](CCCNC(=N)N)NC(=O)[C@H](CO)NC3=O)NC(=O)[C@H](CCCCN)NC(=O)[C@H](CC(=O)O)NC(=O)[C@H](CC(N)=O)NC(=O)[C@H](CC(=O)O)NC(=O)[C@@H]2CCCN2C1=O` [compound 375] (H-DCLGFMRKCIPDNDKCCRPNLVCSRTHKWCK[Cha]VF-NH2; disulfide 2-17, 9-23, 16-30), the IC50 at hNav1.7 amounted to 50 nM; on hNav1.5, 8880 nM; on hNav1.3 it was 20 nM.

`CC[C@H](C)[C@@H]1NC(=O)[C@@H]2CSSC[C@@H]3NC(=O)[C@H](C(C)C)NC(=O)[C@H](CC(C)C)NC(=O)[C@H](CC(N)=O)NC(=O)[C@@H]4CCCN4C(=O)[C@H](CCCNC(=N)N)NC(=O)[C@H](CSSC[C@H](NC(=O)[C@@H](N)CC(=O)O)C(=O)N[C@@H](CC(C)C)C(=O)NCC(=O)N[C@@H](Cc4ccccc4)C(=O)N[C@@H](CCSC)C(=O)N[C@@H](CCCNC(=N)N)C(=O)N[C@@H](CCCCN)C(=O)N2)NC(=O)[C@H](CSSC[C@@H](C(=O)N[C@@H](CCCCN)C(=O)N[C@@H](Cc2ccccc2)C(=O)N[C@H](C(=O)N[C@@H](Cc2ccccc2)C(N)=O)C(C)C)NC(=O)[C@H](Cc2c[nH]c4ccccc24)NC(=O)[C@H](CCCCN)NC(=O)[C@H](Cc2c[nH]cn2)NC(=O)[C@H]([C@@H](C)O)NC(=O)[C@H](CCCNC(=N)N)NC(=O)[C@H](CO)NC3=O)NC(=O)[C@H](CCCCN)NC(=O)[C@H](CC(=O)O)NC(=O)[C@H](CC(N)=O)NC(=O)[C@H](CC(=O)O)NC(=O)[C@@H]2CCCN2C1=O` [compound 377] (H-DCLGFMRKCIPDNDKCCRPNLVCSRTHKWCKFVF-NH2; disulfide 2-17, 9-23, 16-30): the IC50 at hNav1.7 was found to be 50 nM; at hNav1.5 it was 6840 nM; at hNav1.3, 50 nM.

For `CC[C@H](C)[C@@H]1NC(=O)[C@@H]2CSSC[C@@H]3NC(=O)[C@H](C(C)C)NC(=O)[C@H](CC(C)C)NC(=O)[C@H](CC(N)=O)NC(=O)[C@@H]4CCCN4C(=O)[C@H](CCCNC(=N)N)NC(=O)[C@H](CSSC[C@H](NC(=O)[C@@H](N)CC(=O)O)C(=O)N[C@@H](CC(C)C)C(=O)NCC(=O)N[C@@H](Cc4ccccc4)C(=O)N[C@@H](CCSC)C(=O)N[C@@H](CCCNC(=N)N)C(=O)N[C@@H](CCCCN)C(=O)N2)NC(=O)[C@H](CSSC[C@@H](C(=O)N[C@@H](CCCCN)C(=O)NCC(=O)N[C@H](C(=O)N[C@@H](Cc2ccccc2)C(N)=O)C(C)C)NC(=O)[C@H](Cc2c[nH]c4ccccc24)NC(=O)[C@H](CCCCN)NC(=O)[C@H](Cc2c[nH]cn2)NC(=O)[C@H]([C@@H](C)O)NC(=O)[C@H](CCCNC(=N)N)NC(=O)[C@H](CO)NC3=O)NC(=O)[C@H](CCCCN)NC(=O)[C@H](CC(=O)O)NC(=O)[C@H](CC(N)=O)NC(=O)[C@H](CC(=O)O)NC(=O)[C@@H]2CCCN2C1=O` [compound 378] (H-DCLGFMRKCIPDNDKCCRPNLVCSRTHKWCKGVF-NH2; disulfide 2-17, 9-23, 16-30), the IC50 was determined as 710 nM at hNav1.7, 11200 nM on hNav1.5 and 620 nM on hNav1.3.

With `CC[C@H](C)[C@@H]1NC(=O)[C@@H]2CSSC[C@@H]3NC(=O)[C@H](C(C)C)NC(=O)[C@H](CC(C)C)NC(=O)[C@H](CC(N)=O)NC(=O)[C@@H]4CCCN4C(=O)[C@H](CCCNC(=N)N)NC(=O)[C@H](CSSC[C@H](NC(=O)[C@@H](N)CC(=O)O)C(=O)N[C@@H](CC(C)C)C(=O)NCC(=O)N[C@@H](Cc4ccccc4)C(=O)N[C@@H](CCSC)C(=O)N[C@@H](CCCNC(=N)N)C(=O)N[C@@H](CCCCN)C(=O)N2)NC(=O)[C@H](CSSC[C@@H](C(=O)N[C@@H](CCCCN)C(=O)N[C@@H](CC(N)=O)C(=O)N[C@H](C(=O)N[C@@H](Cc2ccccc2)C(N)=O)C(C)C)NC(=O)[C@H](Cc2c[nH]c4ccccc24)NC(=O)[C@H](CCCCN)NC(=O)[C@H](Cc2c[nH]cn2)NC(=O)[C@H]([C@@H](C)O)NC(=O)[C@H](CCCNC(=N)N)NC(=O)[C@H](CO)NC3=O)NC(=O)[C@H](CCCCN)NC(=O)[C@H](CC(=O)O)NC(=O)[C@H](CC(N)=O)NC(=O)[C@H](CC(=O)O)NC(=O)[C@@H]2CCCN2C1=O` [compound 379] (H-DCLGFMRKCIPDNDKCCRPNLVCSRTHKWCKNVF-NH2; disulfide 2-17, 9-23, 16-30), the IC50 was found to be 4860 nM on hNav1.7, 10600 nM at hNav1.5 and 6850 nM at hNav1.3.

In the case of `CC[C@H](C)[C@@H]1NC(=O)[C@@H]2CSSC[C@@H]3NC(=O)[C@H](C(C)C)NC(=O)[C@H](CC(C)C)NC(=O)[C@H](CC(N)=O)NC(=O)[C@@H]4CCCN4C(=O)[C@H](CCCNC(=N)N)NC(=O)[C@H](CSSC[C@H](NC(=O)[C@@H](N)CC(=O)O)C(=O)N[C@@H](CC(C)C)C(=O)NCC(=O)N[C@@H](Cc4ccccc4)C(=O)N[C@@H](CCSC)C(=O)N[C@@H](CCCNC(=N)N)C(=O)N[C@@H](CCCCN)C(=O)N2)NC(=O)[C@H](CSSC[C@@H](C(=O)N[C@@H](CCCCN)C(=O)N[C@@H](Cc2c[nH]cn2)C(=O)N[C@H](C(=O)N[C@@H](Cc2ccccc2)C(N)=O)C(C)C)NC(=O)[C@H](Cc2c[nH]c4ccccc24)NC(=O)[C@H](CCCCN)NC(=O)[C@H](Cc2c[nH]cn2)NC(=O)[C@H]([C@@H](C)O)NC(=O)[C@H](CCCNC(=N)N)NC(=O)[C@H](CO)NC3=O)NC(=O)[C@H](CCCCN)NC(=O)[C@H](CC(=O)O)NC(=O)[C@H](CC(N)=O)NC(=O)[C@H](CC(=O)O)NC(=O)[C@@H]2CCCN2C1=O` [compound 380] (H-DCLGFMRKCIPDNDKCCRPNLVCSRTHKWCKHVF-NH2; disulfide 2-17, 9-23, 16-30), the IC50 on hNav1.7 worked out at 600 nM; at hNav1.5, 10200 nM; on hNav1.3, 750 nM.

In the case of `CC[C@H](C)[C@@H]1NC(=O)[C@@H]2CSSC[C@@H]3NC(=O)[C@H](C(C)C)NC(=O)[C@H](CC(C)C)NC(=O)[C@H](CC(N)=O)NC(=O)[C@@H]4CCCN4C(=O)[C@H](CCCNC(=N)N)NC(=O)[C@H](CSSC[C@H](NC(=O)[C@@H](N)CC(=O)O)C(=O)N[C@@H](CC(C)C)C(=O)NCC(=O)N[C@@H](Cc4ccccc4)C(=O)N[C@@H](CCSC)C(=O)N[C@@H](CCCNC(=N)N)C(=O)N[C@@H](CCCCN)C(=O)N2)NC(=O)[C@H](CSSC[C@@H](C(=O)N[C@@H](CCCCN)C(=O)N[C@@H](Cc2ccc(I)cc2)C(=O)N[C@H](C(=O)N[C@@H](Cc2ccccc2)C(N)=O)C(C)C)NC(=O)[C@H](Cc2c[nH]c4ccccc24)NC(=O)[C@H](CCCCN)NC(=O)[C@H](Cc2c[nH]cn2)NC(=O)[C@H]([C@@H](C)O)NC(=O)[C@H](CCCNC(=N)N)NC(=O)[C@H](CO)NC3=O)NC(=O)[C@H](CCCCN)NC(=O)[C@H](CC(=O)O)NC(=O)[C@H](CC(N)=O)NC(=O)[C@H](CC(=O)O)NC(=O)[C@@H]2CCCN2C1=O` [compound 381] (H-DCLGFMRKCIPDNDKCCRPNLVCSRTHKWCK[Phe(4-I)]VF-NH2; disulfide 2-17, 9-23, 16-30), the IC50 on hNav1.7 was found to be 30 nM; on hNav1.5, 4440 nM; on hNav1.3, 10 nM.

Consider `CC[C@H](C)[C@@H]1NC(=O)[C@@H]2CSSC[C@@H]3NC(=O)[C@H](C(C)C)NC(=O)[C@H](CC(C)C)NC(=O)[C@H](CC(N)=O)NC(=O)[C@@H]4CCCN4C(=O)[C@H](CCCNC(=N)N)NC(=O)[C@H](CSSC[C@H](NC(=O)[C@@H](N)CC(=O)O)C(=O)N[C@@H](CC(C)C)C(=O)NCC(=O)N[C@@H](Cc4ccccc4)C(=O)N[C@@H](CCSC)C(=O)N[C@@H](CCCNC(=N)N)C(=O)N[C@@H](CCCCN)C(=O)N2)NC(=O)[C@H](CSSC[C@@H](C(=O)N[C@@H](CCCCN)C(=O)N[C@@H](CO)C(=O)N[C@H](C(=O)N[C@@H](Cc2ccccc2)C(N)=O)C(C)C)NC(=O)[C@H](Cc2c[nH]c4ccccc24)NC(=O)[C@H](CCCCN)NC(=O)[C@H](Cc2c[nH]cn2)NC(=O)[C@H]([C@@H](C)O)NC(=O)[C@H](CCCNC(=N)N)NC(=O)[C@H](CO)NC3=O)NC(=O)[C@H](CCCCN)NC(=O)[C@H](CC(=O)O)NC(=O)[C@H](CC(N)=O)NC(=O)[C@H](CC(=O)O)NC(=O)[C@@H]2CCCN2C1=O` [compound 382] (H-DCLGFMRKCIPDNDKCCRPNLVCSRTHKWCKSVF-NH2; disulfide 2-17, 9-23, 16-30), for which the IC50 on hNav1.7 is 3950 nM; at hNav1.5 it was above 5000 nM; at hNav1.3 it was 1470 nM.

Turning to `CC[C@H](C)[C@@H]1NC(=O)[C@@H]2CSSC[C@@H]3NC(=O)[C@H](C(C)C)NC(=O)[C@H](CC(C)C)NC(=O)[C@H](CC(N)=O)NC(=O)[C@@H]4CCCN4C(=O)[C@H](CCCNC(=N)N)NC(=O)[C@H](CSSC[C@H](NC(=O)[C@@H](N)CC(=O)O)C(=O)N[C@@H](CC(C)C)C(=O)NCC(=O)N[C@@H](Cc4ccccc4)C(=O)N[C@@H](CCSC)C(=O)N[C@@H](CCCNC(=N)N)C(=O)N[C@@H](CCCCN)C(=O)N2)NC(=O)[C@H](CSSC[C@@H](C(=O)N[C@@H](CCCCN)C(=O)N2CCC[C@H]2C(=O)N[C@H](C(=O)N[C@@H](Cc2ccccc2)C(N)=O)C(C)C)NC(=O)[C@H](Cc2c[nH]c4ccccc24)NC(=O)[C@H](CCCCN)NC(=O)[C@H](Cc2c[nH]cn2)NC(=O)[C@H]([C@@H](C)O)NC(=O)[C@H](CCCNC(=N)N)NC(=O)[C@H](CO)NC3=O)NC(=O)[C@H](CCCCN)NC(=O)[C@H](CC(=O)O)NC(=O)[C@H](CC(N)=O)NC(=O)[C@H](CC(=O)O)NC(=O)[C@@H]2CCCN2C1=O` [compound 383] (H-DCLGFMRKCIPDNDKCCRPNLVCSRTHKWCKPVF-NH2; disulfide 2-17, 9-23, 16-30), the IC50 on hNav1.7, on hNav1.5 and at hNav1.3 was above 5000 nM in each case.
